The values below come from ChEMBL document CHEMBL3132857, “Design, synthesis and biological evaluation of novel indano- and thiaindano-pyrazoles with potential interest for Alzheimer's disease” (Medchemcomm, 2013).

Experiment [1] addresses T1, Acetylcholinesterase (Homo sapiens, UniProt P22303). As to the kind of experiment: Inhibition of human erythrocyte AChE at 10 uM using acetylthiocholine chloride by spectrophotometry.
Experiment [2] has as its target T2, Acetylcholinesterase (Electrophorus electricus, UniProt O42275). Description: Inhibition of electric eel AChE using acetylthiocholine chloride by spectrophotometry.
Experiment [3] deals with T1, Acetylcholinesterase. As to the kind of experiment: Inhibition of human erythrocyte AChE using acetylthiocholine chloride by spectrophotometry.
For experiment [4], the target named is Butyrylcholinesterase (Equus caballus) (UniProt Q9N1N9). Description: Inhibition of horse serum BuChE at 10 uM using butyrylthiocholine chloride by spectrophotometry.
In a further experiment the target is Butyrylcholinesterase (Equus caballus, UniProt Q9N1N9). As to the kind of experiment: Inhibition of horse serum BuChE using butyrylthiocholine chloride by spectrophotometry.
Experiment [5] concerns the target T2, Acetylcholinesterase. As to the kind of experiment: Reversible mixed type inhibition of electric eel AChE using acetylthiocholine chloride by Lineweaver-Burk plot method and Ellman's method based spectrophotometry.
The target of experiment [6] is Acetylcholinesterase (Electrophorus electricus) (UniProt O42275). As to the kind of experiment: Inhibition of electric eel AChE at 10 uM using acetylthiocholine chloride by spectrophotometry.
Experiment [7] deals with T2, Acetylcholinesterase. As to the kind of experiment: Non-competitive inhibition of electric eel AChE using acetylthiocholine chloride by Lineweaver-Burk plot method and Ellman's method based spectrophotometry. A general note: In Ellman's method for cholinesterases, released thiocholine reacts with DTNB.

What is called inhibition is the drop in the measured response relative to a control, in per cent. Low values mean little suppression, high ones strong suppression. As usually defined, the IC50 is the concentration needed to halve the response being measured. Low values mean greater potency in that assay, high ones weaker potency in that assay. `COc1cc2c(cc1OC)C(NC(=O)CN1CCN(Cc3ccccc3F)CC1)c1cn[nH]c1-2` (stereo not drawn) displayed an inhibition on Acetylcholinesterase [1] of 50%. Further, inhibition at Acetylcholinesterase [2] was half-maximal at 3980 nM (IC50).
Consider `COc1cc2c(cc1OC)C(NC(=O)CN1CCN(Cc3ccccc3F)CC1)c1cnn(C)c1-2` (stereo not drawn), for which the IC50 came to 2440 nM on Acetylcholinesterase [3] and 720 nM at Acetylcholinesterase [2]. Besides, the inhibition in experiment [4] was 1%.
On the same counts, the results for `COc1cc2c(cc1OC)C(NC(=O)CN1CCN(Cc3ccccc3F)CC1)c1cnn(-c3ccccc3)c1-2` (stereo not drawn) are 2430 nM, 210 nM and 8%.
With `O=C(CN1CCN(Cc2ccccc2F)CC1)NC1c2cn[nH]c2-c2c(Br)sc(Br)c21` (stereo not drawn), on Acetylcholinesterase [1], the inhibition is 42%. Besides, on Acetylcholinesterase [2], the half-maximal inhibitory concentration (IC50) was determined as 4530 nM.
What is called Ki is the dissociation constant of the complex between target and ligand, obtained from inhibition or displacement. Lower therefore signals tighter binding. Consider `Cn1ncc2c1-c1c(Br)sc(Br)c1C2NC(=O)CN1CCN(Cc2ccccc2)CC1` (stereo not drawn), for which the IC50 against Acetylcholinesterase [3] amounted to 330 nM; at Butyrylcholinesterase it was 7760 nM; against Acetylcholinesterase [2] it was 100 nM. At Acetylcholinesterase [5], this molecule had an inhibition constant Ki of 235 nM.
`COc1cc2c(cc1OC)C(NC(=O)CN1CCN(Cc3ccccc3)CC1)c1cnn(C)c1-2` (stereo not drawn): the figures for the half-inhibitory concentration (IC50) against Acetylcholinesterase [3] and at Acetylcholinesterase [2] were 1840 nM and 1280 nM, respectively.
Consider `Cn1ncc2c1-c1sccc1C2NC(=O)CN1CCN(Cc2ccccc2F)CC1` (stereo not drawn), for which the IC50 against Acetylcholinesterase [3] stood at 1320 nM; at Acetylcholinesterase [2], 1310 nM.
With `O=C(CN1CCN(Cc2ccccc2)CC1)NC1c2cn[nH]c2-c2c(Br)sc(Br)c21` (stereo not drawn), the IC50 on Acetylcholinesterase [3] is 1130 nM; against Acetylcholinesterase [2], 8820 nM.
On to `O=C(CN1CCN(Cc2ccccc2)CC1)NC1c2ccsc2-c2c1cnn2-c1ccccc1` (stereo not drawn), for which the inhibition on Acetylcholinesterase [1] amounted to 36%; in experiment [6] it was 31%.
Consider `COc1cc2c(cc1OC)C(NC(=O)CN1CCN(Cc3ccccc3)CC1)c1cn[nH]c1-2` (stereo not drawn), for which the inhibition against Acetylcholinesterase [1] worked out at 49%. The same molecule displayed a half-inhibitory concentration (IC50) against Acetylcholinesterase [2] of 2940 nM.
On to `Cn1ncc2c1-c1sccc1C2NC(=O)CN1CCN(Cc2ccccc2)CC1` (stereo not drawn), for which the concentration for half-maximal inhibition (IC50) amounted to 930 nM at Acetylcholinesterase [3] and 1910 nM at Acetylcholinesterase [2].
Turning to `O=C(CN1CCN(Cc2ccccc2)CC1)NC1c2cnn(-c3ccccc3)c2-c2c(Br)sc(Br)c21` (stereo not drawn), the IC50 on Acetylcholinesterase [3] was 870 nM; against Acetylcholinesterase [2], 290 nM. In experiment [4], this molecule registered an inhibition of 37%.
On to `O=C(CN1CCN(Cc2ccccc2F)CC1)NC1c2cnn(-c3ccccc3)c2-c2c(Br)sc(Br)c21` (stereo not drawn), for which the values for the inhibition (against Acetylcholinesterase [1]; in experiment [6]) were 15% and 27%, respectively.
`Cn1ncc2c1-c1c(Br)sc(Br)c1C2NC(=O)CN1CCN(Cc2ccccc2F)CC1` (stereo not drawn): the concentration for half-maximal inhibition (IC50) against Acetylcholinesterase [3] is 880 nM; against Acetylcholinesterase [2], 240 nM. The molecule further came in with an inhibition in experiment [4] of 30%. Moreover, affinity on Acetylcholinesterase [7] was put at a Ki of 429 nM.
On to `O=C(CN1CCN(Cc2ccccc2F)CC1)NC1c2cn[nH]c2-c2sccc21` (stereo not drawn), for which the inhibition against Acetylcholinesterase [1] worked out at 42%. In addition, the midpoint of inhibition on Acetylcholinesterase [2], the IC50, lay at 4590 nM.
Take `O=C(CN1CCN(Cc2ccccc2)CC1)NC1c2cn[nH]c2-c2sccc21` (stereo not drawn): the IC50 at Acetylcholinesterase [3] was 9180 nM. In addition, in experiment [6], the inhibition was determined as 49%.
Turning to `COc1cc2c(cc1OC)C(NC(=O)CN1CCN(Cc3ccccc3)CC1)c1cnn(-c3ccccc3)c1-2` (stereo not drawn), the results for the IC50 against Acetylcholinesterase [3] and against Acetylcholinesterase [2] were 2990 nM and 1360 nM, respectively.
The molecule `O=C(CN1CCN(Cc2ccccc2F)CC1)NC1c2ccsc2-c2c1cnn2-c1ccccc1` (stereo not drawn) yielded an inhibition at Acetylcholinesterase [1] of 42%. The 50% inhibitory concentration (IC50) against Acetylcholinesterase [2] stood at 4060 nM.
